Measured values from patent US9090593B2, “Bicyclic compounds as Pim inhibitors” (AMGEN INC., priority 2010, dated 2015).

Key:
[1] = molecular target: T1, full length recombinant Pim-2 protein (Homo sapiens, UniProt Q9P1W9); experiment: Pim-2 enzyme assay (HTRF, phosphorylation of biotinylated-BAD (S112) peptide); type: biochemical; details: enzyme assay, Pim-2; read-out: Pim2_IC50
T1 construct: by full length recombinant Pim-1, Pim-2, or Pim-3 protein; hexahistidine tag followed by a thrombin cleavage site (N); made in house; host or cells: Sf9 (baculovirus) or E. coli (pET28)
Summary of the method: (§1)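 HTRF readout (europium anti-pBAD S112 antibody, streptavidin-APC) of biotin-BAD peptide phosphorylation by recombinant full-length Pim-1 or Pim-2, buffer 60 mM Hepes pH 7.0, 2 mM DTT, 0.05% BSA. Enzymes were His6-tagged, from baculovirus/Sf9 or E. coli.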

[2] = molecular target: T2, full length recombinant Pim-1 protein (Homo sapiens, UniProt P11309); experiment: Pim-1 enzyme assay (HTRF, phosphorylation of biotinylated-BAD (S112) peptide); type: biochemical; details: enzyme assay, Pim-1; read-out: Pim_1_IC50
T2 construct: by full length recombinant Pim-1, Pim-2, or Pim-3 protein; hexahistidine tag followed by a thrombin cleavage site (N); made in house; host or cells: Sf9 (baculovirus) or E. coli (pET28)
Summary of the method: as §1

[3] = molecular target: T3, full length recombinant Pim-3 protein (Homo sapiens, UniProt Q86V86); experiment: Pim-3 enzyme assay (HTRF, phosphorylation of biotinylated-BAD (S112) peptide); type: biochemical; details: read-out: Pim3 IC50
T3 construct: by full length recombinant Pim-1, Pim-2, or Pim-3 protein; purchased Millipore (UK)
Summary of the method: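 HTRF read-out, streptavidin-APC plus Eu-labelled anti-phospho-BAD (S112) antibody, measures BAD peptide phosphorylation by full-length recombinant Pim-3. Buffer: 60 mM Hepes pH 7.0, 2 mM DTT, 0.05% BSA; EDTA (3 mM) stop. Percent of control per well, IC50 by 4-parameter logistic fit.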

[4] = molecular target: T4, Pim-2 stably transfected into the U2OS human osteogenic sarcoma line (Homo sapiens, UniProt Q9P1W9); experiment: Pim cell assay, phospho-BAD normalized against total BAD, U2OS stably transfected with Pim-2; type: cell-based; details: U2OS cells stably transfected with Pim-2, phospho-BAD; high dose […]; read-out: Pim2_Cell_IC50; note: high dose 31.6 µM
T4 construct: expressed in transfected cells; host or cells: U2OS human osteogenic sarcoma line
Summary of the method: (§2)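 Read-out is phospho-BAD relative to total BAD, by MSD electrochemiluminescence on lysates, expressed as % phosphoprotein = (2×phospho)/(phospho+total)×100. Engineered U2OS lines carrying stably transfected Pim-1 or Pim-2 received 10-point compound dilutions at 0.3% final DMSO after overnight culture at 37 °C; DMSO-only wells served as high control.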

[5] = molecular target: T5, Pim-1 stably transfected into the U2OS human osteogenic sarcoma line (Homo sapiens, UniProt P11309); experiment: Pim cell assay, phospho-BAD normalized against total BAD, U2OS stably transfected with Pim-1; type: cell-based; details: U2OS cells stably transfected with Pim-1, phospho-BAD; high dose […]; read-out: Pim1_Cell_IC50
T5 construct: expressed in transfected cells; host or cells: U2OS human osteogenic sarcoma line
Summary of the method: as §2

T1 sequence (Q9P1W9 whole entry): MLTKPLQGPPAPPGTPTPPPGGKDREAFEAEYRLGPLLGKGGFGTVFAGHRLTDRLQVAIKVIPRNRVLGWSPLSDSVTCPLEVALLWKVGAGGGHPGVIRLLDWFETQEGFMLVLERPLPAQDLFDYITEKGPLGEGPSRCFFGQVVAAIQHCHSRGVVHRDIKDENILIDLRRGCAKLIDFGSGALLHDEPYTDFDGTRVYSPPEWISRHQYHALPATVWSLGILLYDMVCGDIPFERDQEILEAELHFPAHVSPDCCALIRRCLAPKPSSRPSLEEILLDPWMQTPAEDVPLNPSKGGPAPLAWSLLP
T4 sequence (Q9P1W9 whole entry): as above
T2 sequence (P11309 whole entry): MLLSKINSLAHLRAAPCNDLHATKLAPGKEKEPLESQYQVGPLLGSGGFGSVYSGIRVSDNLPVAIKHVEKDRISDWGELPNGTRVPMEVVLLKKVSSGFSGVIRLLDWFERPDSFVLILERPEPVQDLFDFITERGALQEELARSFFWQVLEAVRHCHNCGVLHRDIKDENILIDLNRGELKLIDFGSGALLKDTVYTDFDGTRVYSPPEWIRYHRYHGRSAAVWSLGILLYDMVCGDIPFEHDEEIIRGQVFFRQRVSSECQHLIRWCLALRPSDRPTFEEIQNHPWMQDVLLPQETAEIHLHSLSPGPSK
T5 sequence (P11309 whole entry): as above

Compound	IC50 [1] [nM]	IC50 [2] [nM]	IC50 [3] [nM]	IC50 [4] [nM]	IC50 [5] [nM]
CCN(CC)C(=O)c1cccc(-c2ccc3[nH]nc(-c4cncc(N5CCC(N)CC5)n4)c3c2)c1F [Example 47, 3-(3-(6-(4-amino-1-piperidinyl)-2-pyrazinyl)-1H-indazol-5-yl)-N,N-diethyl-2-fluorobenzamide]	290	43	43	> 31600	1940
NC1CCN(c2cncc(-c3n[nH]c4ccc(-c5cc6ccccc6nc5Cl)cc34)n2)CC1 [Example 48, 1-(6-(5-(2-chloro-3-quinolinyl)-1H-indazol-3-yl)-2-pyrazinyl)-4-piperidinamine]	285	44	27	> 31600	1110
Cn1ccc2cc(-c3ccc4[nH]nc(-c5cncc(N6CCC(N)CC6)n5)c4c3)ccc2c1=O [Example 49, 6-(3-(6-(4-amino-1-piperidinyl)-2-pyrazinyl)-1H-indazol-5-yl)-2-methyl-1(2H)-isoquinolinone]	72	7	7	> 31600	1340
Cn1c(=O)cc(-c2ccc3[nH]nc(-c4cncc(N5CCC(N)CC5)n4)c3c2)c2ccccc21 [Example 50, 4-(3-(6-(4-amino-1-piperidinyl)-2-pyrazinyl)-1H-indazol-5-yl)-1-methyl-2(1H)-quinolinone]	470	24	21	> 31600	2270
CN1C(=O)Cc2cc(-c3ccc4[nH]nc(-c5cncc(N6CCC(N)CC6)n5)c4c3)ccc21 [Example 51, 5-(3-(6-(4-amino-1-piperidinyl)-2-pyrazinyl)-1H-indazol-5-yl)-1-methyl-1,3-dihydro-2H-indol-2-one]	87	13	9	> 31600	1460
NC1CCN(c2cncc(-c3n[nH]c4ccc(-c5cnc6ccccc6c5)cc34)n2)CC1 [Example 55, 1-(6-(5-(3-quinolinyl)-1H-indazol-3-yl)-2-pyrazinyl)-4-piperidinamine]	51	1	1	> 31600	287
COc1ccc(F)c(-c2ccc3[nH]nc(-c4cncc(N5CCC(N)CC5)n4)c3c2)c1 [Example 61, 1-(6-(5-(2-fluoro-5-methoxyphenyl)-1H-indazol-3-yl)-2-pyrazinyl)-4-piperidinamine]	65	10	6	> 31600	3010
N#Cc1cccc(-c2ccc3[nH]nc(-c4cncc(N5CCC(N)CC5)n4)c3c2)c1 [Example 62, 3-(3-(6-(4-amino-1-piperidinyl)-2-pyrazinyl)-1H-indazol-5-yl)benzonitrile]	59	11	7	> 31600	599
COc1cccc(-c2ccc3[nH]nc(-c4cncc(N5CCC(N)CC5)n4)c3c2)n1 [Example 63, 1-(6-(5-(6-methoxy-2-pyridinyl)-1H-indazol-3-yl)-2-pyrazinyl)-4-piperidinamine]	161	11	8	> 31600	1690
CC(C)Oc1cccc(-c2ccc3[nH]nc(-c4cncc(N5CCC(N)CC5)n4)c3c2)n1 [Example 64, 1-(6-(5-(6-(1-methylethoxy)-2-pyridinyl)-1H-indazol-3-yl)-2-pyrazinyl)-4-piperidinamine]	150	20	16	> 31600	3020
CCOc1cccc(-c2ccc3[nH]nc(-c4cncc(N5CCC(N)CC5)n4)c3c2)n1 [Example 65, 1-(6-(5-(6-ethoxy-2-pyridinyl)-1H-indazol-3-yl)-2-pyrazinyl)-4-piperidinamine]	274	13	18	> 31600	3530
NC1CCN(c2cncc(-c3n[nH]c4ccc(-c5cccnc5O)cc34)n2)CC1 [Example 68, 3-(3-(6-(4-amino-1-piperidinyl)-2-pyrazinyl)-1H-indazol-5-yl)-2-pyridinol]	88	20	11	> 31600	> 31600

These reach a lower IC50 [1]. Values come first.

IC50 [1] [nM]	IC50 [2] [nM]	IC50 [3] [nM]	IC50 [4] [nM]	IC50 [5] [nM]	Compound
5	7	3	14900	2520	CCNC(=O)c1ccc(F)c(-c2ccc3[nH]nc(-c4cncc(N5CCC(N)CC5)n4)c3c2)c1 [Example 43, 3-(3-(6-(4-amino-1-piperidinyl)-2-pyrazinyl)-1H-indazol-5-yl)-N-ethyl-4-fluorobenzamide]
5	7	4	4580	932	CC(C)NC(=O)c1ccc(F)c(-c2ccc3[nH]nc(-c4cncc(N5CCC(N)CC5)n4)c3c2)c1 [Example 44, 3-(3-(6-(4-amino-1-piperidinyl)-2-pyrazinyl)-1H-indazol-5-yl)-4-fluoro-N-(1-methylethyl)benzamide]
23	12	8	> 31600	1560	NC1CCN(c2cncc(-c3n[nH]c4ccc(-c5cc(C(=O)Nc6ccccc6)ccc5F)cc34)n2)CC1 [Example 45, 3-(3-(6-(4-amino-1-piperidinyl)-2-pyrazinyl)-1H-indazol-5-yl)-4-fluoro-N-phenylbenzamide]
49	20	22	7030	959	CCN(CC)C(=O)c1ccc(F)c(-c2ccc3[nH]nc(-c4cncc(N5CCC(N)CC5)n4)c3c2)c1 [Example 46, 3-(3-(6-(4-amino-1-piperidinyl)-2-pyrazinyl)-1H-indazol-5-yl)-N,N-diethyl-4-fluorobenzamide]
24	4	1	9500	237	NC1CCN(c2cncc(-c3n[nH]c4ccc(-c5ccc6ncsc6c5)cc34)n2)CC1 [Example 52, 1-(6-(5-(1,3-benzothiazol-6-yl)-1H-indazol-3-yl)-2-pyrazinyl)-4-piperidinamine]
17	2	1	9930	280	NC1CCN(c2cncc(-c3n[nH]c4ccc(-c5ccc6scnc6c5)cc34)n2)CC1 [Example 53, 1-(6-(5-(1,3-benzothiazol-5-yl)-1H-indazol-3-yl)-2-pyrazinyl)-4-piperidinamine]
15	2	1	> 31600	130	NC1CCN(c2cncc(-c3n[nH]c4ccc(-c5ccc6nccnc6c5)cc34)n2)CC1 [Example 56, 1-(6-(5-(6-quinoxalinyl)-1H-indazol-3-yl)-2-pyrazinyl)-4-piperidinamine]
11	2	1	6760	164	CN1CCOc2cc(-c3ccc4[nH]nc(-c5cncc(N6CCC(N)CC6)n5)c4c3)cnc21 [Example 58, 1-(6-(5-(4-methyl-3,4-dihydro-2H-pyrido[3,2-b][1,4]oxazin-7-yl)-1H-indazol-3-yl)-2-pyrazinyl)-4-piperidinamine]
28	3	11	> 31600	2160	CS(=O)(=O)c1ccc(-c2ccc3[nH]nc(-c4cncc(N5CCC(N)CC5)n4)c3c2)cc1 [Example 59, 1-(6-(5-(4-(methylsulfonyl)phenyl)-1H-indazol-3-yl)-2-pyrazinyl)-4-piperidinamine]
36	5	4	12800	419	N#Cc1ccccc1-c1ccc2[nH]nc(-c3cncc(N4CCC(N)CC4)n3)c2c1 [Example 60, 2-(3-(6-(4-amino-1-piperidinyl)-2-pyrazinyl)-1H-indazol-5-yl)benzonitrile]
33	4	2	17300	401	NC1CCN(c2cncc(-c3n[nH]c4ccc(-c5cccc(F)n5)cc34)n2)CC1 [Example 66, 1-(6-(5-(6-fluoro-2-pyridinyl)-1H-indazol-3-yl)-2-pyrazinyl)-4-piperidinamine]
10	2	1	15000	380	NC1CCN(c2cncc(-c3n[nH]c4ccc(-c5ccccc5F)cc34)n2)CC1 [Example 67, 1-(6-(5-(2-fluorophenyl)-1H-indazol-3-yl)-2-pyrazinyl)-4-piperidinamine]
